Columns and labels:
Assay type in all cases: in vivo
[1] = tested on: Kochia (Kochia scoparia); assay: Test A preemergence; details: Preemergence; for Plant response rating, Kochia: 125 g ai/ha, visual injury after approximately 10 d, 0 to 100 scale where 0 is no effect and 100 is complete control; for Kochia plant response rating (0 to 100 scale, 0 is no effect, 100 is complete control): 500 g ai/ha, visual injury approx. 10 d
How it was run: (§1)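 Preemergence directed soil spray on seeded pots, or postemergence application to plants 2–10 cm, one- to two-leaf. Solvent mixture non-phytotoxic, with surfactant. Scored ~10 d later, visually, 0–100 vs untreated.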

[2] = tested on: barnyardgrass (Echinochloa crus-galli); assay: Test A preemergence; details: Preemergence; for Plant response rating, Barnyardgrass: 125 g ai/ha, visual injury after approximately 10 d, 0 to 100 scale where 0 is no effect and 100 is complete control; for Barnyardgrass plant response rating (0 to 100 scale, 0 is no effect, 100 is complete control): 500 g ai/ha, visual injury approx. 10 d
How it was run: as §1

[3] = tested on: giant foxtail (Setaria faberii); assay: Test A preemergence; details: Preemergence; for Plant response rating, Foxtail, Giant: 125 g ai/ha, visual injury after approximately 10 d, 0 to 100 scale where 0 is no effect and 100 is complete control; for Foxtail, Giant plant response rating (0 to 100 scale, 0 is no effect, 100 is complete control): 500 g ai/ha, visual injury approx. 10 d
How it was run: as §1

[4] = tested on: pigweed (Amaranthus retroflexus); assay: Test A preemergence; details: Preemergence; for Plant response rating, Pigweed: 125 g ai/ha, visual injury after approximately 10 d, 0 to 100 scale where 0 is no effect and 100 is complete control; for Pigweed plant response rating (0 to 100 scale, 0 is no effect, 100 is complete control): 500 g ai/ha, visual injury approx. 10 d
[5] = tested on: ragweed (common ragweed, Ambrosia elatior); assay: Test A preemergence; details: Preemergence; for Plant response rating, Ragweed: 125 g ai/ha, visual injury after approximately 10 d, 0 to 100 scale where 0 is no effect and 100 is complete control; for Ragweed plant response rating (0 to 100 scale, 0 is no effect, 100 is complete control): 500 g ai/ha, visual injury approx. 10 d
How it was run: as §1

[6] = tested on: ryegrass, Italian (Italian ryegrass, Lolium multiflorum); assay: Test A preemergence; details: Preemergence; for Plant response rating, Ryegrass, Italian: 125 g ai/ha, visual injury after approximately 10 d, 0 to 100 scale where 0 is no effect and 100 is complete control; for Ryegrass, Italian plant response rating (0 to 100 scale, 0 is no effect, 100 is complete control): 500 g ai/ha, visual injury approx. 10 d
How it was run: as §1

[7] = tested on: Galium (catchweed bedstraw, Galium aparine); assay: Test A postemergence
How it was run: as §1

[8] = tested on: Kochia (Kochia scoparia); assay: Test A postemergence
How it was run: as §1

[9] = tested on: barnyardgrass (Echinochloa crus-galli); assay: Test A postemergence
How it was run: as §1

[10] = tested on: blackgrass (Alopecurus myosuroides); assay: Test A postemergence
How it was run: as §1

[11] = tested on: corn (Zea mays); assay: Test A postemergence
How it was run: as §1

[12] = tested on: giant foxtail (Setaria faberii); assay: Test A postemergence
How it was run: as §1

[13] = tested on: pigweed (Amaranthus retroflexus); assay: Test A postemergence
How it was run: as §1

[14] = tested on: ragweed (common ragweed, Ambrosia elatior); assay: Test A postemergence
How it was run: as §1

[15] = tested on: ryegrass, Italian (Italian ryegrass, Lolium multiflorum); assay: Test A postemergence
How it was run: as §1

[16] = tested on: wheat (Triticum aestivum); assay: Test A postemergence
How it was run: as §1

[17] = tested on: barnyardgrass (Echinochloa crus-galli); assay: Test B flooded paddy test; details: Flood, 250 g ai/ha; 0 to 100 scale where 0 is no effect and 100 is complete control; 13 to 15 d
How it was run: (§2)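 Flooding to 3 cm over soil accompanied treatment, which consisted of adding compound to the standing water around 2-leaf plants; depth was then maintained. Visual assessment versus controls followed at 13 to 15 d (scale 0–100, 0 meaning no effect).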

[18] = tested on: ducksalad (Heteranthera limosa); assay: Test B flooded paddy test; details: Flood, 250 g ai/ha; 0 to 100 scale where 0 is no effect and 100 is complete control; 13 to 15 d
How it was run: as §2

[19] = tested on: rice (Oryra sativa); assay: Test B flooded paddy test; details: Flood, 250 g ai/ha; 0 to 100 scale where 0 is no effect and 100 is complete control; 13 to 15 d
How it was run: as §2

[20] = tested on: sedge, umbrella (small-flower umbrella sedge, Cyperus difformis); assay: Test B flooded paddy test; details: Flood, 250 g ai/ha; 0 to 100 scale where 0 is no effect and 100 is complete control; 13 to 15 d
How it was run: as §2

[21] = 125 g ai/ha, postemergence, visual rating after approx. 10 d, 0 to 100 scale (0 no effect, 100 complete control)
[22] = Postemergence, 500 g ai/ha, 0 to 100 scale where 0 is no effect and 100 is complete control

SMILES | Plant response rating, Kochia [1] | Kochia plant response rating (0 to 100 scale, 0 is no effect, 100 is complete control) [1] | Plant response rating, Barnyardgrass [2] | Barnyardgrass plant response rating (0 to 100 scale, 0 is no effect, 100 is complete control) [2] | Plant response rating, Foxtail, Giant [3] | Foxtail, Giant plant response rating (0 to 100 scale, 0 is no effect, 100 is complete control) [3] | Plant response rating, Pigweed [4] | Pigweed plant response rating (0 to 100 scale, 0 is no effect, 100 is complete control) [4] | Plant response rating, Ragweed [5] | Ragweed plant response rating (0 to 100 scale, 0 is no effect, 100 is complete control) [5] | Plant response rating, Ryegrass, Italian [6] | Ryegrass, Italian plant response rating (0 to 100 scale, 0 is no effect, 100 is complete control) [6] | Plant response rating, Galium [7, 21] | Plant response rating, Galium [7, 22] | Plant response rating, Kochia [8, 21] | Plant response rating, Kochia [8, 22] | Plant response rating, Barnyardgrass [9, 21] | Plant response rating, Barnyardgrass [9, 22] | Plant response rating, Blackgrass [10, 21] | Plant response rating, Blackgrass [10, 22] | other results
O=C1NCC(c2ccsc2Cl)C1C(=O)Nc1cccc(F)c1F (stereo not drawn) [Compound 600] | 0 | 20 | 30 | 90 | 30 | 90 | 0 | 0 | 0 | 0 | 0 | 0 | 0 | 0 | 0 | 0 | 0 | 90 | 0 | 0 | Plant response rating, Corn [11, 21]: 0; Plant response rating, Corn [11, 22]: 0; Plant response rating, Foxtail, Giant [12, 21]: 0; Plant response rating, Foxtail, Giant [12, 22]: 30; Plant response rating, Pigweed [13, 21]: 0; Plant response rating, Pigweed [13, 22]: 0; Plant response rating, Ragweed [14, 21]: 0; Plant response rating, Ragweed [14, 22]: 0; Plant response rating, Ryegrass, Italian [15, 21]: 0; Plant response rating, Ryegrass, Italian [15, 22]: 0; Plant response rating, Wheat [16, 21]: 0; Plant response rating, Wheat [16, 22]: 0; Plant response rating, Barnyardgrass [17]: 0; Plant response rating, Ducksalad [18]: 85; Plant response rating, Rice [19]: 15; Plant response rating, Sedge, Umbrella [20]: 0
O=C1NCC(c2cc(Cl)sc2Cl)C1C(=O)Nc1cccc(F)c1F (stereo not drawn) [Compound 601] | 0 | 0 | 60 | 80 | 70 | 80 | 0 | 0 | 0 | 0 | 0 | 0 | 0 | 0 | 0 | 0 | 20 | 70 | 0 | 0 | Plant response rating, Corn [11, 21]: 0; Plant response rating, Corn [11, 22]: 20; Plant response rating, Foxtail, Giant [12, 21]: 20; Plant response rating, Foxtail, Giant [12, 22]: 50; Plant response rating, Pigweed [13, 21]: 0; Plant response rating, Pigweed [13, 22]: 0; Plant response rating, Ragweed [14, 21]: 0; Plant response rating, Ragweed [14, 22]: 0; Plant response rating, Ryegrass, Italian [15, 21]: 0; Plant response rating, Ryegrass, Italian [15, 22]: 0; Plant response rating, Wheat [16, 21]: 0; Plant response rating, Wheat [16, 22]: 20; Plant response rating, Barnyardgrass [17]: 40; Plant response rating, Ducksalad [18]: 75; Plant response rating, Rice [19]: 0; Plant response rating, Sedge, Umbrella [20]: 0
O=C(Nc1ccccc1F)C1C(=O)N(c2ccc([N+](=O)[O-])cc2)CC1c1cccc(C(F)(F)F)c1 (stereo not drawn) [Compound 602] | 0 | 0 | 0 | 0 | 0 | 0 | 0 | 0 | 0 | 0 | 0 | 0 | 0 | 0 | 0 | 0 | 0 | 0 | 0 | 0 | Plant response rating, Corn [11, 21]: 0; Plant response rating, Corn [11, 22]: 0; Plant response rating, Foxtail, Giant [12, 21]: 0; Plant response rating, Foxtail, Giant [12, 22]: 0; Plant response rating, Pigweed [13, 21]: 0; Plant response rating, Pigweed [13, 22]: 0; Plant response rating, Ragweed [14, 21]: 0; Plant response rating, Ragweed [14, 22]: 0; Plant response rating, Ryegrass, Italian [15, 21]: 0; Plant response rating, Ryegrass, Italian [15, 22]: 0; Plant response rating, Wheat [16, 21]: 0; Plant response rating, Wheat [16, 22]: 0; Plant response rating, Barnyardgrass [17]: 0; Plant response rating, Ducksalad [18]: 30; Plant response rating, Rice [19]: 0; Plant response rating, Sedge, Umbrella [20]: 0
C=CCN1CC(c2cccc(C(F)(F)F)c2)C(C(=O)Nc2ccccc2F)C1=O (stereo not drawn) [Compound 605] | 0 | 0 | 30 | 70 | 90 | 90 | 0 | 0 | 0 | 0 | 0 | 20 | 0 | 0 | 0 | 0 | 0 | 80 | 0 | 20 | Plant response rating, Corn [11, 21]: 0; Plant response rating, Corn [11, 22]: 0; Plant response rating, Foxtail, Giant [12, 21]: 20; Plant response rating, Foxtail, Giant [12, 22]: 80; Plant response rating, Pigweed [13, 21]: 0; Plant response rating, Pigweed [13, 22]: 0; Plant response rating, Ragweed [14, 21]: 0; Plant response rating, Ragweed [14, 22]: 0; Plant response rating, Ryegrass, Italian [15, 21]: 0; Plant response rating, Ryegrass, Italian [15, 22]: 0; Plant response rating, Wheat [16, 21]: 0; Plant response rating, Wheat [16, 22]: 30; Plant response rating, Barnyardgrass [17]: 0; Plant response rating, Ducksalad [18]: 50; Plant response rating, Rice [19]: 0; Plant response rating, Sedge, Umbrella [20]: 0

— patent publication US12077503B2, “Substituted cyclic amides and their use as herbicides” (FMC CORPORATION, priority 2015, dated 2024)
